Laboratory results published in PMC6332508, “A Promising PET Tracer for Imaging of α7 Nicotinic Acetylcholine Receptors in the Brain: Design, Synthesis, and in Vivo Evaluation of a Dibenzothiophene-Based Radioligand” (Molecules, 2015).

How the values were obtained:
[1] = Distribution coefficient, shake-flask method, n-octanol/PBS; assay type: physicochemical; settings: n-octanol/phosphate-buffered saline; n-octanol-PBS, pH 7.2, shake-flask, n = 3; read-out: log D7.2
Experimental: (§1) in vitro radiochemical stability of [^18F]10a was investigated in 0.9% NaCl solution, PBS (pH 7.2), and 0.01 M Tris-HCl (pH 7.4 at 21 °C) at 40 °C and in EtOH at room temperature for up to 90 min. Samples were taken at 15, 30, 60, and 90 min of incubation time and analyzed by radio-TLC and radio-HPLC. Log D7.2 of [^18F]10a was experimentally determined in n-octanol/phosphate-buffered saline (PBS; 0.01 M, pH 7.2) at room temperature by the shake-flask method in multiple distribution. Measurement was performed twice in triplicate.

[2] = In vitro radiochemical stability; assay type: physicochemical; settings: 40 °C, up to 90 min
Experimental: as §1

[3] = Metabolite analysis in pig plasma; assay type: in vivo, pigs
Experimental: To control the quality of the K[^18F]F-Kryptofix®222/K2CO3-complex, reactions using ethylene glycol ditosylate were performed randomly. Radio-TLC of [^18F]10a and [^18F]10b was performed on Polygram® ALOX N/UV254 plates (Macherey-Nagel GmbH & Co. KG) with dichloromethane/methanol (9:1, v/v). The spots of the references were visualized using UV light at 254 nm.
Arterial blood was sampled using a peristaltic pump during the first 20 min of the scan followed by manual sampling at 25, 30, 40, 50, 60, 90, 120, 150, 180, 210, and 240 min after injection. Plasma was obtained by centrifugation (13,000 rpm, 2 min at 21 °C) and total radioactivity concentration was measured using a gamma-counter (1470 Wizard; PerkinElmer, Shelton, CT, USA) cross-calibrated to the PET scanner. […]
The plasma input function was corrected for the presence of radioactive metabolites by determination of the parent fraction as described previously. Plasma samples were de-proteinized by addition of ice-cold acetonitrile (500 μL MeCN/100 μL plasma) followed by centrifugation (13,000 rpm, 10 min). Aliquots of the original plasma sample and of the supernatant obtained after centrifugation were counted for radioactivity, and the supernatant was analyzed by radio-HPLC following the chromatographic methods described in quality control. The parent fraction as a function of time was fitted iteratively with the Levenberg-Marquardt algorithm, including decay correction, to calculate metabolite corrected input function.

O=S1(=O)c2ccc([18F])cc2-c2ccc(N3CCN4CCC3CC4)cc21 [[^18F]10a]
logD [1]: 1.3 ± 0.1 | stability in physiological solutions and organic solvents [2]: stable | Parent fraction of total radioactivity in plasma ([3]; 2 min p.i.): 88% | Parent fraction of total radioactivity in plasma ([3]; 60 min p.i.): 24% | Parent fraction of total radioactivity in plasma ([3]; 120 min p.i.): 19%
